Results from patent publication US20080090878A1, “Pharmaceutical combinations and their use in treating gastrointestinal and abdominal viscera disorders” (priority 1999, published 2008).

Test system: Guinea-Pig Colon Entero-Chromaffin Cells
Test: Release of serotonin (5HT) from guinea-pig colon entero-chromaffin cells, organ bath, HPLC
Format: cell-based, guinea-pigs
Conditions: guinea-pig proximal colon
Method: Male guinea-pigs, 200-400 g are stunned and bled. Segments of the proximal colon are removed and suspended, as described by Trendelenburg in Arch. Exp. Path. Pharmakol., 81, 55-129 (1917), in a 20 ml organ bath. The tissue is bathed with a modified Krebs solution (NaCl 118.6; CaCl2 2.7; KCl 4.7; KH2 PO4 1.2; MgSO4 0.1; NaHCO3 25.0; and glucose 5.6 mM), maintained at 37° C. 5-HT is determined by high-performance liquid chromatography with electro-chemical detection. […] To individual organ baths the following agents are added prior to the addition of physostigmine (1 microM): 1) no addition (negative control), 2) atropine (0.2 microM) (positive control), 3) hexamethonium (100 microM) (positive control), 4) tegaserod, 5) cilansetron, 6) prucalopride, 7) A-85380, 8) fedotozine, 9) chlordiazepoxide, 10) CGP49823, 11) buproprion, 12) fluvoxamine, 13) tegaserod plus cilansetron, 14) tegaserod plus prucalopride, 15) tegaserod plus A-85380, 16)-tegaserod plus fedotozine, 17) tegaserod plus chlordiazepoxide, 18) tegaserod plus SDZ-NKT-343, 19) tegaserod plus buproprion, or 20) tegaserod plus fluvoxamine. The combination of agents results in an amplification of the reduction of physostigmine-induced serotonin outflow as compared to any of the agents alone.

Compound	luminal outflow of 5-HT (0.2 microM)	luminal outflow of 5-HT (100 microM)
CN1[C@@H]2CC[C@H]1C[C@@H](OC(=O)C(CO)c1ccccc1)C2 (some centres unmarked) [atropine]	significantly reduced	–
C[N+](C)(C)CCCCCC[N+](C)(C)C [hexamethonium]	–	significantly reduced
